Experiment: Inhibition of Plasmodium vivax aminopeptidase-M18

Structure (SMILES): Oc1ccc(CCN2CCc3ccccc3C2)cc1O
- pIC50: 5.102

Structure (SMILES): Oc1ccc(C2CCCN(c3ccnc4ccccc34)C2)cc1O (stereo unspecified)
- pIC50: 5.377

Structure (SMILES): COc1ccc(CCCNc2c3ccccc3nc3ccccc23)cc1OC
- pIC50: 5.658

Structure (SMILES): Oc1cccc(CCNc2ccnc3ccccc23)c1O
- pIC50: 5.569

Structure (SMILES): CN(CCc1ccc(O)c(O)c1)c1ccnc2ccccc12
- pIC50: 5.319

Structure (SMILES): COc1ccc(CCN(C)c2ccnc3cc(Cl)ccc23)cc1OC
- pIC50: 5.24

Structure (SMILES): COc1ccc(CCNc2c3ccccc3nc3ccccc23)cc1OC
- pIC50: 5.61

Structure (SMILES): COc1ccc(CCNc2c3ccccc3nc3ccccc23)cc1
- pIC50: 5.959

Structure (SMILES): Oc1ccc(CCCNc2c3ccccc3nc3ccccc23)cc1O
- pIC50: 5.432

Structure (SMILES): COc1cc(Br)c(CCNc2ccnc3ccccc23)cc1OC
- pIC50: 6.347

Structure (SMILES): Oc1ccc(CCNc2c3ccccc3nc3ccccc23)cc1
- pIC50: 6.155

Structure (SMILES): COc1ccc(CCNC2CCN(Cc3ccccc3)CC2)cc1OC
- pIC50: 5.161

Structure (SMILES): Oc1ccc(CCNc2ccnc3ccccc23)cc1O
- pIC50: 5.409

Structure (SMILES): Cc1cccc2c(NCCc3ccc(O)c(O)c3)ccnc12
- pIC50: 5.328

Structure (SMILES): Oc1ccc(C2CCN(c3ccnc4ccccc34)CC2)cc1O
- pIC50: 5.887

Structure (SMILES): CCOc1ccc2nccc(NCCc3ccc(OC)c(OC)c3)c2c1
- pIC50: 5.854

Structure (SMILES): COc1ccc(CCN(C)c2c3ccccc3nc3ccccc23)cc1OC
- pIC50: 5.347

Structure (SMILES): COc1cc(Br)c(CCNc2c3ccccc3nc3ccccc23)cc1OC
- pIC50: 6.522

Structure (SMILES): COc1ccc(C2CCN(c3ccnc4ccccc34)C2)cc1OC (stereo unspecified)
- pIC50: 5.699

Structure (SMILES): COc1cc(Br)c(CCNc2c3c(nc4ccccc24)CCCC3)cc1OC
- pIC50: 5.522

Structure (SMILES): Oc1ccc(CCNC2CCN(Cc3ccccc3)CC2)cc1O
- pIC50: 5.187

Structure (SMILES): COc1ccc(CCNc2ccnc3cc(Cl)ccc23)cc1OC
- pIC50: 6.18

Structure (SMILES): Cc1c(OCc2ccccc2)c(=O)ccn1CCNc1c2ccccc2nc2ccccc12
- pIC50: 5.398

Structure (SMILES): COc1cccc(CCNc2c3ccccc3nc3ccccc23)c1
- pIC50: 6.221

Structure (SMILES): NCCNc1c2ccccc2nc2ccccc12
- pIC50: 6.301

Structure (SMILES): Oc1ccc(CCNc2ccnc3cc(Cl)ccc23)cc1O
- pIC50: 6.208

Structure (SMILES): O=c1ccn(CCNc2c3ccccc3nc3ccccc23)cc1OCc1ccccc1
- pIC50: 5.328

Structure (SMILES): COc1ccc(CNc2c3ccccc3nc3ccccc23)cc1OC
- pIC50: 5.979

Structure (SMILES): Oc1ccc(CCNc2c3c(nc4ccccc24)CCCC3)cc1O
- pIC50: 5.443

Structure (SMILES): COc1ccc(CCNc2cncc3ccccc23)cc1OC
- pIC50: 5.347

Structure (SMILES): Oc1ccc(C2CCN(c3ccnc4ccccc34)C2)cc1O (stereo unspecified)
- pIC50: 6.031

From ChEMBL document CHEMBL4390680, “In silico study of M18 aspartyl amino peptidase (M18AAP) of Plasmodium vivax as an antimalarial drug target” (Bioorg Med Chem, 2019)
